From publication PMC13266999, “Designing Antibiotics with Inherent Resistance to Efflux as a Strategy to Revive Discovery against Multidrug-Resistant Pathogens” (Journal of Medicinal Chemistry, 2026)
Converted amounts (≈) assume the structure as drawn. Like-named read-outs stand apart in the source and are kept apart here.

Key:
S. aureus [1] = experiment: MIC (microbroth dilution); type: cell-based, Staphylococcus aureus
Summary of the method: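 Broth microdilution MICs, defined as lowest compound level without visible growth (OD600 read), on bacteria grown overnight to stationary phase then diluted. Twofold compound dilutions; some wells also received PMBN, final 30 μg/mL, to permeabilize the outer membrane.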

S. aureus [2] = experiment: Serial passaging, MIC of adapted strains; type: cell-based; details: Staphylococcus aureus
Procedure: MICs were performed on the first and 10th passage.

[3] = molecular target: T1, GyrA S84L mutant DNA gyrase (Staphylococcus aureus, UniProt P0A0K8+P20831, S84L); experiment: DNA gyrase supercoiling inhibition assay; type: biochemical, S. aureus
T1 construct: purchased Inspiralis Ltd. (Norwich, UK)
Procedure: (§1) Gyrase inhibition was determined through biochemical assay kits from Inspiralis Ltd. (Norwich, UK), according to manufacturer’s instructions, and as described previously. Briefly, 1U of enzyme was incubated with 0.5 μg of relaxed […] DNA in the presence of compound in 1% DMSO for 30 min at 37 °C. A control reaction contained no compound but still contained 1% DMSO. The reactions were stopped through Stop Buffer addition and the DNA separated through addition of chloroform/iso-amyl alcohol (24;1). Samples were run on a 1% agarose gel at 75 V for 2 h, which was then stained with 1 μg/mL ethidium bromide and visualized using a NuGenius gel imager (Syngene). The intensity of the supercoiled DNA band was quantified using Syngene software, and the inhibition of the supercoiling of the DNA by the compounds was calculated.

WT DNA gyrase = molecular target: T2, WT DNA gyrase (Staphylococcus aureus, UniProt P0A0K8+P20831); experiment: DNA gyrase supercoiling inhibition assay; type: biochemical, S. aureus
T2 construct: purchased Inspiralis Ltd. (Norwich, UK)
Procedure: as §1

Acinetobacter baumannii = experiment: MIC (microbroth dilution); type: cell-based
Procedure: All bacteria were maintained on tryptic soy agar (TSA), except Streptococcus spp., which were maintained on Columbia agar plates containing 5% horse blood. All bacterial assays were carried out in tryptic soy broth (TSB), except for Streptococcus spp. which were grown in cation-adjusted Mueller Hinton broth containing 2.5% lysed horse blood. Bacteria were grown to stationary phase in liquid culture overnight, with shaking at 200 rpm, before being back diluted to the relevant starting concentration for each assay below. MICs were measured by the microbroth dilution method. […] Absorbance at OD600 was read on a CLARIOstar spectrophotometer (BMG Labtech) and the MIC was defined as the minimum concentration of compound where no visible growth was detected. The compounds were prepared as a DMSO stock and equivalent concentrations of DMSO had no effect on bacterial growth. MICs were also performed in the presence of the outer membrane permeator, polymyxin b nonapeptide (PMBN) following the same MIC method but with the following variation. The 2-fold dilution series of compound was prepared as above, then 50 μL of PMBN at a final concentration of 30 μg/mL was added to relevant wells, while 50 μL/well of blank media was added to the remaining wells. Bacteria were then added at 50 μL/well for a starting concentration as above. Thirty μg/mL of PMBN had no effect on bacterial growth. The MICs were read and defined as above. All animal procedures were performed by the contract research organization Pharmacology Discovery Services Taiwan in accordance with the Guide for the Care and Use of Laboratory Animals. The procedures were approved by the Institutional Ethics Committee of Pharmacology Discovery Services Taiwan, Ltd. (approval no. AB127662), in compliance with animal welfare legislation in Taiwan.

For `C[C@H]1COc2c(N3CC[C@@H](Nc4ncccn4)C3)c(F)cc3c(=O)c(C(=O)O)cn1c23` [Compound 46, (S)-9-Fluoro-3-methyl-7-oxo-10-((R)-3-(pyrimidin-2-ylamino)pyrrolidin-1-yl)-2,3-dihydro-7H-[1,4]oxazino[2,3,4-ij]quinoline-6-carboxylic acid], the MIC (S. aureus [1]; NCTC 13616) was 0.5 to 1 µg/mL, the “fold difference in MIC, SA-1199B vs SA-1199” value (S. aureus [1]; NorA-overexpressing vs WT) was 2 fold and the MIC (S. aureus [1]; SA-1199B (NorA-overexpressing)) was 0.03 µg/mL (≈ 0.0705 µM). It also gave an MIC (S. aureus [1]; Staphylococcus aureus, 1199, + 4% albumin, read-out: MIC) of 0.03 to 0.06 µg/mL, an MIC (S. aureus [1]; Staphylococcus aureus, 1199b, + 4% albumin, read-out: MIC) of 0.06 µg/mL and an MIC (S. aureus [1]; Staphylococcus aureus, ATCC9144, ATCC 9144, + 4% albumin, read-out: MIC) of 0.03 to 0.06 µg/mL. The MIC (S. aureus [1]; Staphylococcus aureus, ATCC9144, ATCC 9144, read-out: MIC) was at most 0.03 µg/mL, the MIC (S. aureus [1]; Staphylococcus aureus, NCTC13277, NCTC 13277, + 4% albumin, read-out: MIC) was 1 to 2 µg/mL and the MIC (S. aureus [1]; Staphylococcus aureus, NCTC13277, NCTC 13277, read-out: MIC) was 1 µg/mL (≈ 2.35 µM). For the same compound, the MIC (S. aureus [1]; Staphylococcus aureus, NCTC13616, NCTC 13616, + 4% albumin, read-out: MIC) was 1 to 2 µg/mL, the MIC (S. aureus [1]; Staphylococcus aureus, NCTC13616, NCTC 13616, read-out: MIC) was 0.5 µg/mL (≈ 1.18 µM) and the MIC (S. aureus [1]; Staphylococcus aureus, SA-1199B (NorA-overexpressing)) was 0.016 µg/mL (≈ 0.0376 µM). For the same compound, the “fold potentiation compared to levofloxacin” value (S. aureus [1]; fluoroquinolone-resistant NCTC 13616 and NCTC 13277) was 16–32 fold, the MIC (S. aureus [2]; 1199B WT) was 0.015 µg/mL and the MIC (S. aureus [2]; 1199B adapted to 4 x MIC of Compound 7) was 0.03 µg/mL. The MIC (S. aureus [2]; 1199B adapted to 4 x MIC of Compound 46) was 0.125 µg/mL, the MIC (S. aureus [2]; 1199B adapted to 4 x MIC of Compound 50) was 0.25 µg/mL and the MIC (S. aureus [2]; 1199B adapted to 4 x MIC of Compound 51) was 0.06 µg/mL. For the same compound, the MIC (S. aureus [2]; 1199 WT) was 0.008 µg/mL, the MIC (S. aureus [2]; 1199 adapted to 4 x MIC of Compound 7) was 0.015 µg/mL and the MIC (S. aureus [2]; 1199 adapted to 4 x MIC of Compound 46) was 0.03 µg/mL. For the same compound, the MIC (S. aureus [2]; 1199 adapted to 4 x MIC of Compound 50) was 0.125 µg/mL, the MIC (S. aureus [2]; 1199 adapted to 4 x MIC of Compound 51) was 0.03 µg/mL and the MIC (S. aureus [2]; NCTC13616, NCTC 13616 WT) was 0.5 µg/mL. It also gave an MIC (S. aureus [2]; NCTC13616, NCTC 13616 adapted to 4 x MIC of Compound 7) of 0.5 µg/mL, an MIC (S. aureus [2]; NCTC13616, NCTC 13616 adapted to 4 x MIC of Compound 46) of 0.5 µg/mL and an MIC (S. aureus [2]; NCTC13616, NCTC 13616 adapted to 4 x MIC of Compound 50) of 0.5 µg/mL. The MIC (S. aureus [2]; NCTC13616, NCTC 13616 adapted to 4 x MIC of Compound 51) was 2 µg/mL, the IC50 [3] was 95.3 µM and the IC50 (WT DNA gyrase) was 7.92 µM. For the same compound, the MIC (Acinetobacter baumannii; Acinetobacter baumannii, 86, oxa23, read-out: MIC) was 8 µg/mL (≈ 18.8 µM), the MIC (Acinetobacter baumannii; Acinetobacter baumannii, 96, oxa23, read-out: MIC) was 4 µg/mL (≈ 9.4 µM) and the MIC (Acinetobacter baumannii; Acinetobacter baumannii, 113, oxa23, read-out: MIC) was 4 µg/mL (≈ 9.4 µM). It also gave an MIC (Acinetobacter baumannii; Acinetobacter baumannii, A118, read-out: MIC) of at most 0.06 µg/mL, an MIC (Acinetobacter baumannii; Acinetobacter baumannii, A318, read-out: MIC) of 8 µg/mL (≈ 18.8 µM) and an MIC (Acinetobacter baumannii; Acinetobacter baumannii, A319, read-out: MIC) of 8 µg/mL (≈ 18.8 µM). The MIC (Acinetobacter baumannii; Acinetobacter baumannii, A600 colR, read-out: MIC) was 4 µg/mL (≈ 9.4 µM), the MIC (Acinetobacter baumannii; Acinetobacter baumannii, A601 colS, read-out: MIC) was at most 0.06 µg/mL and the MIC (Acinetobacter baumannii; Acinetobacter baumannii, AB01335 adeG183::T26) was 4 µg/mL (≈ 9.4 µM). It also gave an MIC (Acinetobacter baumannii; Acinetobacter baumannii, AB5075-UW, read-out: MIC) of 4 µg/mL (≈ 9.4 µM), an MIC (Acinetobacter baumannii; Acinetobacter baumannii, AB05215 adeS132::T26) of 4 µg/mL (≈ 9.4 µM) and an MIC (Acinetobacter baumannii; Acinetobacter baumannii, AB05218 adeS141::T26) of 4 µg/mL (≈ 9.4 µM). The MIC (Acinetobacter baumannii; Acinetobacter baumannii, AB05219 adeR103::T26) was 4 µg/mL (≈ 9.4 µM), the MIC (Acinetobacter baumannii; Acinetobacter baumannii, AB05222 adeR160::T101) was 4 µg/mL (≈ 9.4 µM) and the MIC (Acinetobacter baumannii; Acinetobacter baumannii, AB05226 adeA165::T26) was 4 µg/mL (≈ 9.4 µM). For the same compound, the MIC (Acinetobacter baumannii; Acinetobacter baumannii, AB05227 adeA138::T26) was 2 µg/mL (≈ 4.7 µM), the MIC (Acinetobacter baumannii; Acinetobacter baumannii, AB05228 adeB150::T26) was 1 µg/mL (≈ 2.35 µM) and the MIC (Acinetobacter baumannii; Acinetobacter baumannii, AB05230 adeB181::T26) was 1 µg/mL (≈ 2.35 µM). The MIC (Acinetobacter baumannii; Acinetobacter baumannii, ATCC17978, ATCC 17978, read-out: MIC) was at most 0.25 µg/mL, the MIC (Acinetobacter baumannii; Acinetobacter baumannii, BAA1709, BAA-1709, read-out: MIC) was 0.125 µg/mL (≈ 0.294 µM) and the MIC (Acinetobacter baumannii; Acinetobacter baumannii, BAA1710, BAA-1710 (AYE), read-out: MIC) was 4 µg/mL (≈ 9.4 µM). For the same compound, the MIC (Acinetobacter baumannii; Acinetobacter baumannii, BAA2093, BAA-2093, read-out: MIC) was 0.03 to 0.06 µg/mL (≈ 0.0705 to 0.141 µM), the MIC (Acinetobacter baumannii; Acinetobacter baumannii, NCTC10303, NCTC 10303, read-out: MIC) was at most 0.06 µg/mL and the MIC (Acinetobacter baumannii; Acinetobacter baumannii, NCTC12156, NCTC 12156, read-out: MIC) was 0.125 µg/mL (≈ 0.294 µM). For the same compound, the MIC (Acinetobacter baumannii; Acinetobacter baumannii, NCTC13302, NCTC 13302, oxa24, read-out: MIC) was 4 µg/mL (≈ 9.4 µM), the MIC (Acinetobacter baumannii; Acinetobacter baumannii, NCTC13424, NCTC 13424, oxa23, read-out: MIC) was over 64 µg/mL and the MIC (Acinetobacter baumannii; Acinetobacter baumannii, T strain, read-out: MIC) was 8 µg/mL (≈ 18.8 µM). It also gave an MIC (Acinetobacter baumannii; Acinetobacter baumannii, UKA1, oxa23, read-out: MIC) of 4 µg/mL (≈ 9.4 µM), an MIC (Acinetobacter baumannii; Acinetobacter baumannii, UKA2, Low resistance, read-out: MIC) of 8 µg/mL (≈ 18.8 µM) and an MIC (Acinetobacter baumannii; Acinetobacter baumannii, UKA9, read-out: MIC) of at most 0.06 µg/mL. The MIC (Acinetobacter baumannii; Acinetobacter baumannii, UKA12, oxa23, read-out: MIC) was 2 µg/mL (≈ 4.7 µM), the MIC (Acinetobacter baumannii; Acinetobacter baumannii, UKA13, oxa23, read-out: MIC) was 2 µg/mL (≈ 4.7 µM) and the MIC (Acinetobacter baumannii; Acinetobacter baumannii, UKA15, oxa23, read-out: MIC) was 1 µg/mL (≈ 2.35 µM). It also gave an MIC (Acinetobacter baumannii; Acinetobacter baumannii, UKA19, read-out: MIC) of 0.25 µg/mL (≈ 0.588 µM) and an MIC (Acinetobacter baumannii; Acinetobacter baumannii, W1, read-out: MIC) of 4 µg/mL (≈ 9.4 µM).
